Target: T1, HR13 (Heliothis virescens, UniProt Q6A1K1)
T1 construct: stably expressed, tetracycline-induced, in Flp-In T-REx293/Galpha15 (HEK293) cells; no Orco mentioned
T1 sequence (Q6A1K1 1-425): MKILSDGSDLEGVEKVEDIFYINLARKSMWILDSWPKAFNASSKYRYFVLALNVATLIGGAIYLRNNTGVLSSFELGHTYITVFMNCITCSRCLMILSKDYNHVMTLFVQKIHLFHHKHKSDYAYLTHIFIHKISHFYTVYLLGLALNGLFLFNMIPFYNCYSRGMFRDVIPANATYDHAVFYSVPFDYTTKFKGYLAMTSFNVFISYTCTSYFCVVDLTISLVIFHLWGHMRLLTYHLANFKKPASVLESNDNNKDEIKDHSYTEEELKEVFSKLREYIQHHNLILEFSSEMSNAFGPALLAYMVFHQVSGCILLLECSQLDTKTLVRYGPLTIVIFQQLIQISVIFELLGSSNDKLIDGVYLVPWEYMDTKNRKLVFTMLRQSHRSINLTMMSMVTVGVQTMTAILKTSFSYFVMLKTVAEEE
Test: fura-2 calcium imaging, mixture with Z11-16:Ald
Assay type: cell-based
Conditions: inhibitor of response to 1 nM Z11-16:Ald; no agonism at 100 nM; competitive or allosteric not resolved

C=CC(C)(O)CCC=C(C)C (stereo not shown) [linalool]
F/F0 of mixture (1, 10, 100 nM): linalool reduced the pheromone-induced calcium response of HR13 cells in a dose-dependent manner

From publication PMC3465774, “Plant odorants interfere with detection of sex pheromone signals by male Heliothis virescens” (Frontiers in Cellular Neuroscience, 2012)
